Experimental findings from paper PMC10076643, “Design, synthesis and anticancer activity studies of 3-(coumarin-3-yl)-acrolein derivatives: Evidenced by integrating network pharmacology and vitro assay” (Frontiers in Pharmacology, 2023) are described below.

Structures are written as SMILES.

For one data set, the system named is Bax in KB cells. Put plainly: Western blot, Bax. As to conditions: 0.40 μM, 24 h. The format is cell-based, human. The text has this: (§1) Based on the results of network pharmacology, the key proteins related to PI3K/AKT pathway were detected by Western blotting to explore the antitumor mechanism of compound 6e. […] Such an inconsistency might be due to a compensatory increase in PI3K level after the reduction of AKT phosphorylation level. Additionally, the active-caspase 3 protein, anti-apoptosis protein Bcl-2 and pro-apoptosis protein Bax were further analyzed. Caspase-3 normally exists in the cytoplasm as zymogen. During the early stage of apoptosis, caspase-3 (32 KD) is cleaved to the active 17-kD caspase-3 fragment, which is responsible for morphological and biochemical changes in apoptosis. Bcl-2 and Bax are the […] located on the mitochondrial membrane and capable of controlling the MMP (ΔΨm) and the activation of caspase cascade.
(§2) A total of 4 × 10^5 KB cells were seeded into 6-well and grown for overnight. Then the cells adherent to the wall were treated with compound 6e in different concentrations (0, 0.40, 0.80, 1.60 μM) for 24 h. After that, cells were collected, SDS lysate, 100X protease inhibitor and 50X phosphorylation inhibitor were added in a certain proportion to lyse the cells. The protein content was determined by BCA reagent (Beyotime, China) according to the standard curve. […]

The test system of data set [1] is A549 (human lung cancer cell line). Kind of data set: MTT antiproliferative assay, A549. The format is cell-based. As to conditions: Homo sapiens, A549; MTT, 72 h. The text has this:
All the synthesized compounds were screened for in vitro antiproliferative activity against four human cancer cell lines A549 (human lung cancer cell line), KB (human oral epidermoid carcinoma cell line), Hela (human cervical carcinoma cell line), MCF-7 (human breast cancer cell line) and two human normal cell lines HUVEC (human umbilical vein endothelial cell) and LO2 (human normal hepatocytes) through the 3-(4,5-dimethyl-2-thiazolyl)-2,5-diphenyl-2-H-tetrazolium bromide (MTT) assay.
Non-small-cell lung cancer (A549), oral epidermoid carcinoma (KB), cervical cancer (Hela) and breast cancer (MCF-7) cells were purchased from the American Type Culture Collection (ATCC, America). Human umbilical vein endothelial cell (HUVEC) and human normal hepatocytes (LO2) cells were provided by Guangzhou Medical University (Guangzhou, China). A549 and KB cells were cultured in RMPI-1640 medium (Gibco, America). Hela, MCF-7 and LO2 cells were cultured in DMEM medium (Gibco, America). HUVEC cells were cultured in Ham’s F-12K medium (Gibco, America). All the mediums were supplemented with 10% fetal bovine serum (FBS) (BI, State of Israel), 100 U/mL penicillin and 100 μg/mL streptomycin (Gibco, America), and all the cells were incubated in a sterile incubator at 37°C in an environment of 5% CO2. The tested compounds were dissolved in dimethyl sulfoxide (DMSO) at a concentration of 10 mM, and then diluted into different concentration of solutions by culture medium. The final concentration of DMSO was <0.01% (v/v) in all drug treatment groups to avoid the toxicity in the biological system. Untreated cells were used as a blank control and 5-fluorouracil treated cells were used as a positive control.
The incubated tumor cells were planted into 96-well plates (4×10^3 cells/well). After 24 h, the cells were adherent to the wall and treated with the compound 6e in different concentrations (0.78, 1.56, 3.12, 6.25, 12.50, 25.00, and 50.00 μM) for 72 h. Afterwards, the medium was supplemented with 10 µL MTT solution. After 4 h, the culture medium was removed and 100 µL DMSO was added. The absorbance was determined at the wavelength of 540 nm and 655 nm using a microplate reader (BioTek Epoch, America). The results were collected from three independent experiments. The IC50 was then calculated by using GraphPad Prism Software (version 7.0) and non-linear regression (curve fit).

The subject of data set [2] is AKT phosphorylation in KB cells. Kind of data set: Western blot, pAKT/AKT. Type of data set: cell-based, human. As to conditions: increased concentration (0.40, 0.80, 1.60 μM), 24 h.
From the text: as §1, §2

The subject of a further data set is KB cells. Put plainly: JC-1 mitochondrial membrane potential (MMP) assay. The format is cell-based, human. As to conditions: increasing concentration (0.5 IC50, IC50, 2 IC50), 48 h. The text has this: According to the predicted results of network pharmacology, compound 6e might stimulate the oxidative stress response of cancer cells. Oxidative stress reflects an imbalance between excessive production of reactive free radical and deficits in antioxidant biosystem ([Zhong et al., 2018]). Mitochondria are the main reactors that produce reactive free radicals in cells, and MMP is a key indicator of mitochondrial activity. Excessive oxidative stress can cause a decrease in MMP, which leads to the damage of mitochondrial. It is well-known that mitochondrial damage is a major trigger for the induction of cell apoptosis and necrosis ([Kharroubi et al., 2017]; [Meng et al., 2021]). Therefore, JC-1 staining was used to investigate the effect of compound 6e on the MMP (ΔΨm) of KB cells. In normal cells, JC-1 can form aggregates in healthy mitochondria, emitting red fluorescence, while in apoptotic cells, JC-1 will stay in monomers that emit green fluorescence, implying a low value of ΔΨm. Therefore, mitochondrial depolarization is manifested by a decrease in the ratio of red to green fluorescence intensity.
MMP was determined using the JC-1 mitochondria staining Kit (Aladdin, China). […] On one hand, JC-1 red and green fluorescence intensities were measured with Varioskan™ LUX Multimode Microplate Reader (Thermo Fisher Scientific, America) under the […]. […]

The compound `O=CC=C(Cl)c1cc2ccc(OCc3ccccc3)cc2oc1=O` [Compound 6e, 3-(7-(Benzyloxy)-2-oxo-2H-chromen-3-yl)-3-chloroacrylaldehyde] displayed a melting point of 223 to 225 °C. Moreover, in the data set with Bax in KB cells, the “expression of Bax compared with the control group” value is recorded as “upregulated”. Moreover, the midpoint of inhibition in data set [1], the IC50, lay at 7.4 ± 0.2 µM. Besides, the pAKT/AKT ratios entry in data set [2] is “remarkably decreased”. In addition, the “JC-1 ratio (red to green fluorescence)” value with KB cells is on record as “significant decrease”.
